Experimental data reported in patent US20220348565A1, “PHARMACEUTICAL COMPOUNDS” (SENTINEL ONCOLOGY LIMITED, priority 2019, published 2022).
Structures can show the parent of a compound that is named as a salt. Where two headings read alike, the source gives them in different places.

Columns and labels:
[1] = Chiral stability (interconversion) of isolated atropisomers on heating, chiral HPLC; type: physicochemical; conditions: for % ee of sample @ 40° C. / % ee sample @ 80° C.: EtOH solution, listed as A-1
Method: Stability studies were carried out on the isolated atropisomers, atropisomers A-1 and A-2. To assess the interconversion of atropisomer A-1 and atropisomer A-2 chiral stability was monitored at 40° C. and 80° C. […] 1. 2×1 mg of pure atropisomer was dissolved in 1 mL of EtOH in a sealed-dram vial. 2. One set of vials was heated at 40° C. and another set at 80° C. 3. […] 4. Analysis was carried out at the following timepoints: 0 h, 24 h, 48 h, 72 h, 96 h and 240 h for the samples kept at 40° C. and 24 h, 96 h and 240 h for the samples kept at 80° C. using Chiral HPLC method 5

U87MG cells [2] = experiment: U87MG human glioblastoma cell viability, SRB assay, 72 hours; type: cell-based
Method: The following protocol was used to measure the effects of compounds of the invention on U87MG cell viability.
U87MG cells were grown in their recommended growth media/supplements (ATCC). Cells were seeded at a concentration of 5000 cells per well into 96 well plates overnight at 37° C., 5% CO2. Cells were treated with relevant concentrations of test compound for 72 hours. After 72 hours incubation, viability was established using sulforhodamine B (SRB) colorimetric assay. Percentage viability was calculated against the mean of the DMSO treated control samples, and IC50 values for inhibition of cell growth were calculated using GraphPad Prism software by nonlinear regression (4 parameter logistic equation).

[3] = system: panel of 48 cancer-derived cell lines; experiment: Proliferation assay on diverse cancer cell line panel, CellTiter-Glo, 72 hours; type: cell-based; conditions: 72 hours
Method: Screening against diverse cancer cell lines was performed to identify tumour types displaying sensitivity to atropisomers A-1 and A-2. A panel of 48 cancer-derived cell lines was screened in a high-throughput proliferation assay using dilutions of atropisomers A-1/A-2. Cell lines that were screened included those representing cancer of the pancreas, large intestine/colorectum, lung, brain and nerves, and lymphoma and leukaemia cell lines. Cell lines were treated with serial half-log dilutions of compound and assayed 72 hours later for proliferation using CellTiter-Glo Assay (Promega). IC50 values were calculated by fitting the dose-response data using a nonlinear regression model.

U87MG cells [4] = experiment: Mitotic phenotype study in U87MG cells; type: cell-based, human; conditions: 0.03 μM, listed as A-1
Method: Distinct mitotic phenotypes are induced following inhibition of PLK1 and PLK4 in cells. […] Centriole assembly is controlled by PLK4, with inhibitors inducing a multipolar spindle phenotype due to centrosome defects which results in abnormal cyokinesis (Wong et al., 2015. Science 348(6239); 1155-1160). Cells were plated at 10 000/well in 96-well plates and incubated overnight. The following day atropisomer A-2 stocks in DMSO were diluted in medium then added to cells with a maximum final DMSO concentration on cells of 0.2%. Cells were incubated with the compound for 24 hours then fixed in 3.7% formaldehyde. Cells were permeabilised with 0.1% Triton X-100 then incubated with anti-phospho-histone H3 (Ser10) antibody (Abcam). The cells were washed with PBS then incubated with AlexaFluor 488 labelled goat anti-rabbit IgG (Invitrogen) in the presence of 4 ug/mL Hoechst 33342 (Invitrogen). Cells were washed in PBS then imaged on an Arrayscan VTi HCS instrument using the Target Activation V4 Bioapplication. A user-defined threshold was applied to identify mitotic cells based on the intensity of phospho-histone H3 staining. In a separate study, following the above protocol and using single compound concentrations of 0.03 μM for each of atropisomer A-1 and atropisomer A-2, the frequency of observed mitotic phenotypes in U87MG cells was manually assessed and classified into the following phenotypes: non-congressed chromosomes, multipolar spindles/abnormal cytokinesis, monopolar spindles, normal prometaphase, normal metaphase for each of A-1 and A-2.

[5] = system: wild-type KRAS HeLa cells; experiment: HeLa cell viability, wild-type KRAS transgene, Cell Titre Blue; type: cell-based; conditions: 72 hours, listed as A-4, read-out: WT GI50
Method: (§1) Atropisomers A-1, A-2, A-3 and A-4 were tested on HeLa cells engineered to inducibly express wild-type or oncogenic KRasG12V transgenes using the FLP-in/T-Rex system (Invitrogen). Cells were plated, and then treated with or without Doxycycline to induce transgene expression, and then treated with serially-diluted PBD inhibitors. After 72 hours of incubation, cell viability was assessed using the Cell Titre Blue reagent (Promega) and a BMG Pherastar plate reader. The effect of PBD inhibition on cell viability with either wild-type or oncogenic G12V KRAS was assessed using GraphPad Prism.
(§2) From the results obtained by following the above protocol, the GI50 values against the wild-type and KRAS G12V HeLa cell line of each of the atropisomers were determined as shown in Table 12.

KRAS G12V HeLa cell line = experiment: HeLa cell viability, oncogenic KRasG12V transgene, Cell Titre Blue; type: cell-based; conditions: KRAS G12V HeLa cells, 72 hours; listed as A-4
Method: as §1, §2

[6] = Gravimetric solubility in water; type: physicochemical
Method: The solubility in water of the salts was measured using a gravimetric solubility protocol.
(§3) 1 ml of water was charged into crystallisation tubes. The solid was weighed into a tared glass vial, added in portions to the solutions and the vial weighed after each addition until a hazy solution was observed. The amount in mg was then calculated to give the solubility in mg/ml.
as §3, with “The solubility in water of the salts was measured using a gravimetric solubility protocol. Thus, 1” for “1”, “mg/mL.” for “mg/ml.”

[7] = Gravimetric vapour sorption (GVS); type: physicochemical
Method: Sorption isotherms were obtained using a Hiden Isochema moisture sorption analyser (model IGAsorp), controlled by IGAsorp Systems Software V6.50.48. The sample was maintained at a constant temperature (25° C.) by the instrument controls. The humidity was controlled by mixing streams of dry and wet nitrogen, with a total flow of 250 ml·min-1. The instrument was verified for relative humidity content by measuring three calibrated Rotronic salt solutions (10-50-88%). The weight change of the sample was monitored as a function of humidity by a microbalance (accuracy +/−0.005 mg). A defined amount of sample was placed in a tared mesh stainless steel basket under ambient conditions. A full experimental cycle typically consisted of three scans (sorption, desorption and sorption) at a constant temperature (25° C.) and 10% RH intervals over a 0-90% range (60 minutes for each humidity level).

CN(C)CCNC(=O)c1ccc(-c2ccc(-c3ccc(Cl)cc3)n2-c2ccccc2C(F)(F)F)cc1 (single isomer, unassigned) [Atropisomer A-1, 4-[5-(4-chlorophenyl)-1-[2-(trifluoromethyl)phenyl]pyrrol-2-yl]-N-[2-(dimethylamino)ethyl]benzamide]
% ee of sample @ 40° C. ([1]; 0 h): 100 % ee
% ee of sample @ 40° C. ([1]; 24 h): 100 % ee
% ee of sample @ 40° C. ([1]; 48 h): 100 % ee
% ee of sample @ 40° C. ([1]; 72 h): 100 % ee
% ee of sample @ 40° C. ([1]; 96 h): 100 % ee
% ee of sample @ 40° C. ([1]; 10 days): 100 % ee
% ee sample @ 80° C. ([1]; 0 h): 100 % ee
% ee sample @ 80° C. ([1]; 24 h): 100 % ee
% ee sample @ 80° C. ([1]; 96 h): 100 % ee
% ee sample @ 80° C. ([1]; 10 days): 100 % ee
atropisomer classification (LaPlante) ([1]; from stability of isolated atropisomers): Class 3
interconversion / racemization of atropisomers on heating ([1]; heating for 10 days at 40° C. and 80° C.): no interconversion was observed
IC50 (U87MG cells [2]): 4.6 µM
IC50 ([3]; A549, Lung): 9.19 µM
IC50 ([3]; A-172, Brain & Nerves): 7.07 µM
IC50 ([3]; AsPC-1, Pancreas): > 10 µM
IC50 ([3]; BxPC-3, Pancreas): 6.97 µM
IC50 ([3]; COLO 205, Large intestine/Colorectum): 6.75 µM
IC50 ([3]; Capan-1, Pancreas): > 10 µM
IC50 ([3]; D283 Med, Brain & Nerves): 9.26 µM
IC50 ([3]; DOHH-2, Blood/Lymphoma): 5.64 µM
IC50 ([3]; Daoy, Brain & Nerves): 7 µM
IC50 ([3]; Daudi, Blood/Lymphoma): 7.17 µM
IC50 ([3]; GRANTA-519, Blood/Lymphoma): 7.42 µM
IC50 ([3]; HBL-1, Blood/Lymphoma): 9.94 µM
IC50 ([3]; HCC44, Lung): 8.26 µM
IC50 ([3]; HOT 116, Large intestine/Colorectum, listed as A-1): 7.36 µM
IC50 ([3]; HT-29, Large intestine/Colorectum): 4.53 µM
IC50 ([3]; JVM-2, Blood/Lymphoma): 4.71 µM
IC50 ([3]; JeKo-1, Blood/Lymphoma): 7.94 µM
IC50 ([3]; KG-1, Blood/Leukaemia): > 10 µM
IC50 ([3]; Kasumi-1, Blood/Leukaemia): 5.13 µM
IC50 ([3]; LN-229, Brain & Nerves): 7.37 µM
IC50 ([3]; LoVo, Large intestine/Colorectum): 8.36 µM
IC50 ([3]; MIA PaCa-2, Pancreas): 9.17 µM
IC50 ([3]; ML-2, Blood/Leukaemia, listed as A-1): 4.01 µM
IC50 ([3]; MV-4-11, Blood/Leukaemia): 6.49 µM
IC50 ([3]; NAMALWA, Blood/Lymphoma): 7.05 µM
IC50 ([3]; NCI-H460, Lung): 8.13 µM
IC50 ([3]; NCI-H1299, Lung): 8.25 µM
IC50 ([3]; NCI-H1373, Lung): > 10 µM
IC50 ([3]; NCI-H1792, Lung): 7.73 µM
IC50 ([3]; NCI-H1975, Lung): 5.14 µM
IC50 ([3]; OCI-LY-19, Blood/Lymphoma): 6.67 µM
IC50 ([3]; PANC-1, Pancreas): > 10 µM
IC50 ([3]; Panc 10.05, Pancreas): 9 µM
IC50 ([3]; RKO, Large intestine/Colorectum): 6.17 µM
IC50 ([3]; Raji, Blood/Lymphoma): 3.91 µM
IC50 ([3]; Ramos, Blood/Lymphoma): 3.99 µM
IC50 ([3]; SK-MES-1, Lung): 7.78 µM
IC50 ([3]; SU-DHL-2, Blood/Lymphoma): 7.01 µM
IC50 ([3]; SU-DHL-6, Blood/Lymphoma): 3.98 µM
IC50 ([3]; SVV620, Large intestine/Colorectum, listed as A-1): 8.35 µM
IC50 ([3]; SW480, Large intestine/Colorectum): 7.55 µM
IC50 ([3]; SW1088, Brain & Nerves): 8.49 µM
IC50 ([3]; T98G, Brain & Nerves): 5.26 µM
IC50 ([3]; Toledo, Blood/Lymphoma): > 10 µM
IC50 ([3]; U118 MG, Brain & Nerves): 7.6 µM
IC50 ([3]; U-2932, Blood/Lymphoma): 4.47 µM
IC50 ([3]; WSU-DLCL2, Blood/Lymphoma): 6.74 µM
IC50 ([3]; Z-138, Blood/Lymphoma): 7.04 µM
cells with abnormal cytokinesis (U87MG cells [4]): 24%
cells with non-congressed chromosomes (U87MG cells [4]): No evidence
cells with normal mitotic phenotype (U87MG cells [4]): 76%

CN(C)CCNC(=O)c1ccc(-c2ccc(-c3ccc(Cl)cc3)n2-c2ccccc2C(F)(F)F)nc1 (single isomer, unassigned) [Atropisomer A-4, 6-[5-(4-chlorophenyl)-1-[2-(trifluoromethyl)phenyl]pyrrol-2-yl]-N-[2-(dimethylamino)ethyl]pyridine-3-carboxamide]
IC50 (U87MG cells [2]; listed as A-4): 3.94 µM
GI50 [5]: 254 nM
GI50 (KRAS G12V HeLa cell line): 153 nM

CN(C)CCNC(=O)c1ccc(-c2ccc(-c3ccc(Cl)cc3)n2-c2ccccc2C(F)(F)F)cc1 [(+)-L-tartaric acid salt, (R)-2,4-[5-(4-chlorophenyl)-1-[2-(trifluoromethyl)-phenyl]pyrrol-2-yl]-N-[2-(dimethylamino)-ethyl]benzamide (+)-L-tartaric acid salt]
water solubility compared with free base [6]: improved water solubility over the free base
surface moisture uptake ([7]; at 90% RH): < 1%

CN(C)CCNC(=O)c1ccc(-c2ccc(-c3ccc(Cl)cc3)n2-c2ccccc2C(F)(F)F)cc1.O=C(O)C(O)C(O)C(=O)O [Tartrate Pattern B, (R)-4-[5-(4-chlorophenyl)-1-[2-(trifluoromethyl)phenyl]pyrrol-2-yl]-N-[2 (dimethylamino)ethyl]benzamide tartrate]
solid form stability under GVS ([7]; 0-90% RH cycling, XRPD post GVS): stable solid, only absorbing surface moisture with no change in form
moisture content before the first desorption ([7]; GVS, 25° C.): ca. 0.3%
moisture taken up between 80 and 90% RH ([7]; GVS, 25° C., 80-90% RH): ca. 0.8%
